Where no end group is shown, it is not given here.
Columns and labels:
Format in all cases: in vivo
[1] = system: delayed-type hypersensitivity (DTH); assay: Restoration of delayed-type hypersensitivity (DTH) decreased by 5-FU in BDF1 mice; settings: for DTH response %: % of control
Description: A poor prognosis is often observed in cancer patients with impaired immune response. Impaired immune response can be caused by the cancer itself, by chemotherapeutic agents, or by radiotherapy. Thus, therapeutic agents which restore impaired immune response in cancer patients are expected to play an important role in combination therapy. The restoration activity of the compounds of the invention on impaired cell-mediated immunity was determined by measuring the enhancement of delayed-type hypersensitivity (DTH), which was decreased to a great extent in mice treated with 5-fluorouracil (5-FU).
Female BDF1 mice (20-22 g, 11-12 weeks old) received (i.p. or p.o.) the compound to be tested on consecutive days one day before, concurrently with and 1 and 2 days after the 5-FU treatment. For DTH measurement, 10^8 chicken red blood cells (CRBC) were injected i.p. (or s.c. into the left hind footpad) and challenged s.c. into the right hind footpad at 3 and 7 days after the 5-FU treatment, respectively. Restoration activity was calculated by the following formula from the DTH response observed in the control group, 5-FU treated group treatment and the Test group treated both with 5-FU and the compound of the invention. Restoration activity was calculated by the formula: [formula]

P388 leukemia = assay: Protective activity against P388 leukemia growth in 5-FU immunosuppressed mice; settings: for Mean Survival days (days ± S.D.): CDF1 mice, 5-FU +, P388 +, 5-FU + saline 4.1
Description: The treatment with cytostatic agents often decreases immunocompetence and consequently increases incidence of metastasis of tumor in cancer patients. […] In the experiment shown in Table 10, male CDF1 mice (6 week old) were treated daily for 8 times with or without 5-FU (28 mg/kg/day ip.) and then transplanted subcutaneously with P388 leukemic cells (3×10^5) into footpad 24 hours later. When pretreated with 5-FU, mice died very quickly at 4 days, while normal mice survived about 23 days after the transplant. […] Thymosin α1 and compound A may improve the immunodefense system against metastatic tumor growth in cancer patients who are receiving immunosuppressive chemotherapy. In combination with thymosin α1 or compound A, more extensive cancer chemotherapy for a longer duration may be possible.
^(1) CDF1 mice were pretreated daily for 8 times from Day 8 to
with 5FU (28 mg/kg/day, ip.).
^(2) Thymosin α1 or Compound A were administered daily for
14 times from Day 8 to 5 by ip. route.
^(3) P388 leukemic cells (3 × 10^5) were inoculated into
^(4) Survival days after the inoculation of the leukemic cells.

[2] = system: Candida albicans ATCC 10231; assay: Protective activity against Candida albicans infection in 5-FU immunosuppressed mice; settings: for Survivors Day 8 / Survivors Day 15: ddY mice; for Survivors at Day 8 after infection: Table 6, i.p., ten times with 5-FU, control 1/7
Description: In a series of examples, the compounds of formula I were tested for protective activity against opportunistic infections in immunosuppressed mice. Female ddY mice (6 weeks old) weighing about 26 g were pretreated daily for ten days with 5-fluorouracil (5-FU) (25 mg/kg/day, i.p.) and with thymosin α1 or with compounds of formula I (i.p.) at varying dosages. The mice were then infected with Candida albicans ATCC 10231 (1×10^5 cells or more) at 24 hour after the last treatment. One control group was administered 5-FU and saline solution and a second control group received neither 5-FU nor compound of formula I prior to infection with Candida albicans. The number of animals surviving eight days after infection with Candida albicans and 15 days after infection with Candida albicans is presented in the table below.
(§1) Normal mice (female ddY mice, 6 weeks old) were highly tolerant to infection with Candida albicans ATCC 10231 at relatively low dose (1-2×10^5 cells, iv.). However, when pretreated daily for ten times with 5-FU (25 mg/kg/day, ip.), the mice were susceptible to infection as shown in Table 6. […] Compound A was also shown to be active against infection with Pseudomonas aeruginosa 5E81-1 and Listeria monocytogenes EGD in the immunosuppressed mice (see Tables 7 and 8).

[3] = system: Listeria monocytogenes EGD; assay: Growth of Listeria monocytogenes in liver of P388 tumor-bearing mice; settings: for Growth of Bacteria (log10 /liver): Tumor-bearing CDF1 mice, i.p., seven times before infection, 3 days after infection, control 7.1
Text: The immunocompetence of tumor-bearing mice is known to be frequently deficient. This is illustrated by the fact that Listeria monocytogenes EGD grew considerably in tumor-bearing mice as compared to normal mice (see Table 9). Male CDF1 mice (6 weeks old) transplanted with P388 leukemia (3×10^5 cells, footpad) were infected with Listeria monocytogenes (2×10^3 cells, iv.) 7 days after the transplant. Three days thereafter the number of the bacteria grown in liver was counted.

[4] = system: Pseudomonas aeruginosa 5E81-1; assay: Protection against Pseudomonas aeruginosa infection in 5-FU immunosuppressed mice; settings: for Survivors at Day 15 after infection: Table 7, i.p., 5-FU immunosuppressed mice, control 0/30
Description: as §1

[5] = Table 2, 5-FU plus 0.05 μg/kg/day, i.p.
[6] = Table 2, 5-FU plus 0.5 μg/kg/day, i.p.
[7] = Table 2, 5-FU plus 5.0 μg/kg/day, i.p.
[8] = Table 3, second experiment, 5-FU plus 0.5 μg/kg/day, i.p.
[9] = Table 4, 5-FU plus 0.5 μg/kg/day p.o.
[10] = Table 4, 5-FU plus 5.0 μg/kg/day p.o.
[11] = Table 4, 5-FU plus 50.0 μg/kg/day p.o.
[12] = Example 8, 0.4 μg/kg i.p. daily for ten days with 5-FU
[13] = Example 8, 4.0 μg/kg i.p. daily for ten days with 5-FU
[14] = Example 8, 40.0 μg/kg i.p. daily for ten days with 5-FU
[15] = Example 10, 0.04 μg/kg i.p. daily for ten days with 5-FU
[16] = Example 10, 0.4 μg/kg i.p. daily for ten days with 5-FU
[17] = Example 10, 4.0 μg/kg i.p. daily for ten days with 5-FU
[18] = Example 11, 0.04 μg/kg i.p. daily for ten days with 5-FU
[19] = Example 11, 0.4 μg/kg i.p. daily for ten days with 5-FU
[20] = Example 11, 4.0 μg/kg i.p. daily for ten days with 5-FU

“KKEVVE [Compound A, L-Lysyl-L-lysyl-L-glutamyl-L-valyl-L-valyl-L-glutamic acid]” was tested, and the “Restoration Activity(%)” value [1, 5] was 34.4%, the DTH response % [1, 5] was 70.7% and the “DTH response av. ± S.E. (0.1 mm)” value ([1]; Table 2, 5-FU plus 0.05 μg/kg/day, i.p., control 10.3, 5-FU alone 5.7) was 7.3 ± 0.9 0.1 mm. The “Restoration Activity(%)” value [1, 6] was 66.6%, the DTH response % [1, 6] was 84.8% and the “DTH response av. ± S.E. (0.1 mm)” value ([1]; Table 2, 5-FU plus 0.5 μg/kg/day, i.p., control 10.3, 5-FU alone 5.7) was 8.7 ± 1.2 0.1 mm. The “Restoration Activity(%)” value [1, 7] was 56.6%, the DTH response % [1, 7] was 80.7% and the “DTH response av. ± S.E. (0.1 mm)” value ([1]; Table 2, 5-FU plus 5.0 μg/kg/day, i.p., control 10.3, 5-FU alone 5.7) was 8.3 ± 0.8 0.1 mm. The “DTH response av. ± S.E. (0.1 mm)” value ([1]; Table 3, second experiment (control 15.1, 5-FU alone 8.1), 5-FU plus 0.5 μg/kg/day, i.p.) was 10.8 ± 0.8 0.1 mm, the “Restoration Activity(%)” value [1, 8] was 39.1% and the DTH response % [1, 8] was 71.6%. For the same substance, the “DTH response av. ± S.E. (0.1 mm)” value ([1]; Table 4 (control 7.7, 5-FU alone 5.6), 5-FU plus 0.5 μg/kg/day p.o.) was 5.4 ± 0.9 0.1 mm, the “DTH response av. ± S.E. (0.1 mm)” value ([1]; Table 4 (control 7.7, 5-FU alone 5.6), 5-FU plus 5.0 μg/kg/day p.o.) was 5.9 ± 1.0 0.1 mm and the “DTH response av. ± S.E. (0.1 mm)” value ([1]; Table 4 (control 7.7, 5-FU alone 5.6), 5-FU plus 50.0 μg/kg/day p.o.) was 8.7 ± 1.2 0.1 mm. The “Restoration Activity(%)” value [1, 9] was 0%, the DTH response % [1, 9] was 70.1% and the “Restoration Activity(%)” value [1, 10] was 14.3%. The DTH response % [1, 10] was 76.6%, the “Restoration Activity(%)” value [1, 11] was 147.6% and the DTH response % [1, 11] was 113%. The “DTH restoration activity (in words)” value ([1]; administered orally, Table 4) was “active when administered orally”, the “DTH restoration activity (in words)” value ([1]; i.p., Tables 2 and 3) was “equal or in some instances, greater activity than did thymosin α1 at lower doses” and the “Mean Survival days (days ± S.D.)” value (P388 leukemia; 0.4 μg/kg/day ip. 14 times) was 22.3 ± 2.8 days. For the same substance, the “Mean Survival days (days ± S.D.)” value (P388 leukemia; 4 μg/kg/day ip. 14 times) was 23.7 ± 2.9 days, the “survival days (in words)” value (P388 leukemia; daily treatment in addition to 5-FU, 8 times before and 6 times after the transplant) was “increased the survival days to the level similar to that obtained in normal mice” and the “Survivors Day 8” value [2, 12] was 6/7. The “Survivors Day 15” value [2, 12] was 5/7, the “Survivors Day 8” value [2, 13] was 5/7 and the “Survivors Day 15” value [2, 13] was 4/7. For the same substance, the “Survivors Day 8” value [2, 14] was 5/7, the “Survivors Day 15” value [2, 14] was 2/7 and the “Survivors Day 8” value ([2]; Example 9, 0.4 μg/kg i.p. daily for ten days with 5-FU) was 6/7. The “Survivors Day 8” value ([2]; Example 9, 4.0 μg/kg i.p. daily for ten days with 5-FU) was 5/7, the “Survivors Day 8” value ([2]; Example 9, 40.0 μg/kg i.p. daily for ten days with 5-FU) was 4/7 and the “Survivors Day 8” value [2, 15] was 6/10. The “Survivors Day 15” value [2, 15] was 4/10, the “Survivors Day 8” value [2, 16] was 9/10 and the “Survivors Day 15” value [2, 16] was 8/10. For the same substance, the “Survivors Day 8” value [2, 17] was 9/10, the “Survivors Day 15” value [2, 17] was 8/10 and the “Survivors Day 8” value [2, 18] was 6/10. For the same substance, the “Survivors Day 15” value [2, 18] was 4/10, the “Survivors Day 8” value [2, 19] was 9/10 and the “Survivors Day 15” value [2, 19] was 8/10. The “Survivors Day 8” value [2, 20] was 9/10, the “Survivors Day 15” value [2, 20] was 8/10 and the “Survivors at Day 8 after infection” value ([2]; 0.4 μg/kg/day) was 6/7. For the same substance, the “Survivors at Day 8 after infection” value ([2]; 4 μg/kg/day) was 5/7, the “Survivors at Day 8 after infection” value ([2]; 40 μg/kg/day) was 4/7 and the “Growth of Bacteria (log10 /liver)” value ([3]; 0.4 μg/kg/day) was 6.0 log10 /liver. The “Growth of Bacteria (log10 /liver)” value ([3]; 4 μg/kg/day) was 5.7 log10 /liver, the “growth of the bacteria in liver (in words)” value ([3]; tumor-bearing mice pretreated daily for seven times before infection) was “growth of the bacteria was suppressed” and the “Survivors at Day 15 after infection” value ([4]; 0.04 μg/kg/day) was 5/20. For the same substance, the “Survivors at Day 15 after infection” value ([4]; 0.4 μg/kg/day) was 12/30, the “Survivors at Day 15 after infection” value ([4]; 4 μg/kg/day) was 7/30 and the “activity against infection (in words)” value ([4]; immunosuppressed mice) was “active”.

— patent US4442031A, “Immunopotentiating peptides” (Hoffmann-La Roche Inc., priority 1983, dated 1984)
